# Key:
# [1] = Thickening agent solution equivalent to the standard; type: physicochemical; conditions: at concentration tested (g/L): alginate 10, modified corn starch 34, amylopectin 67, carrageenans 3, chitosan 100, dextrin 46, guar 2, xanthan 2, glycerol 860, konjac 4, Carbomer 940 4, Gel Maker EMU 4.4, PVP 60, carboxymethylcellulose 30, hydroxypropylcellulose 30, calcium chloride 280, potassium chloride 280, potassium sulfate 140
# Phytoseiulus persimilis = assay: "Toxicity" of thickening agent to persimilis at 12 hours; type: in vivo; conditions: concentration tested (g/L): alginate 10, modified corn starch 34, carrageenans 3, guar 2, xanthan 2, glycerol 860, konjac 4, Carbomer 940 4, Gel Maker EMU 4.4, PVP 60, carboxymethylcellulose 30
# Experimental: “Non-toxic” means less than 20% of biocontrol agents dead at the end of 12 hours.
# A little solution containing the persimilis is kept in order to evaluate any possible “toxicity” at 12 hours.
Structure (SMILES),Equivalent to the standard [1],“Toxicity” (Phytoseiulus persimilis)
[Ca+2].[Cl-].[Cl-] [Calcium chloride],No,
OCC(O)CO [Glycerol],Yes,Yes
[Cl-].[K+] [Potassium chloride],No,
O=S(=O)([O-])[O-].[K+].[K+] [Potassium sulfate],no,

# From patent publication US20240276978A1, “Method for Dispersing Live Predatory Mites of the Phytoseiulus Genus Which Are Used in Biocontrol” (Bioline Agrosciences France, priority 2020, published 2024)
